Assay results from the OPERA property sets (Mansouri et al. 2018).

First: CC(=O)c1cnccn1
Second: COC(=O)c1cnccn1
The logP of the first is higher: 0.2 for the first, -0.23 for the second.

Going from CNc1cnccn1 to CC(=O)Nc1cnccn1, the logP falls from 0.56 to -0.03.

Compared with CN(C)C(=O)c1ccccn1, CN(C)C(=O)c1cnccn1 is lower in logP: -0.45 for the first, -0.8 for the second.

Compared with Fc1ccccn1, CSc1ccccn1 is higher in logP: 0.84 for the first, 1.71 for the second.

Going from CN(C)c1ccccn1 to CN(C)c1cnccn1, the logP falls from 1.65 to 0.93.

Compared with Fc1cnccn1, Clc1cnccn1 is higher in logP: 0.29 for the first, 0.7 for the second.

Compared with COc1cnccn1, CCOc1cnccn1 is higher in logP: 0.73 for the first, 1.28 for the second.

Compared with CCCOc1cnccn1, CCCOc1ccccn1 is higher in logP: 1.84 for the first, 2.38 for the second.

Going from N#Cc1cnccn1 to CCc1cnccn1, the logP rises from -0.01 to 0.69.

First: CCOC(=O)c1cnccn1
Second: CSc1cnccn1
The logP of the first is lower: 0.28 for the first, 1.17 for the second.

Going from COc1ccccn1 to CCOc1ccccn1, the logP rises from 1.34 to 1.81.

In the case of CNc1ccccn1, the logP is reported as 1.12.
